These results are taken from article PMC9137037 (Frontiers in Oncology, 2022).

Where no end group is shown, it is not given here.

The test concerns cynomolgus monkeys. Put plainly: ELISA antibody titers, monkey study No.00213519. Format: in vivo, Macaca fascicularis. The conditions noted are these: monkey 2nd set, 25, 100, 250 µg on days 1, 15, 29, 43, serum days 29, 43, 57, APi2568 as capture. Here is the method:
The non-human primate studies were carried out by the Charles River Laboratories (Ashland, OH USA). All the cynomolgus monkeys (Macaca fascicularis of Chinese origin) were obtained from Charles River Laboratories (Houston, TX, USA). In brief, the animals were approximately 2–4 years old and at the body weight between 2.2 and 3.1 kg at the initial dosing. The animals were kept at the temperature between 19°C and 24°C, humidity 30%–70%, and with 12 h light and 12 h dark light cycle. The Good manufacturing practice (GMP)-manufactured vaccine was used in the non-human primate study. […] Similar to mouse and dog dosing preparation, after the emulsion was prepared, a drop test was performed on each time of dosing to confirm that the emulsion had been prepared properly. […] All the animals’ body weights were monitored weekly after receiving. […]
Enzyme-linked immunosorbent assay (ELISA) was performed per our lab standard procedure. […] After washing, the antibody was detected using 50 μl of 0.15% H2O2 in 24 mM of citric acid and 5 mM of the sodium phosphate buffer (pH5.2) with 0.5 mg/ml 2, […] (3-ethylbenzthiazole- 6-sulfonic acid, ABTS; Sigma, St. Louis, MO, USA) as the chromophore. […] Absorbance was read at 415 nm using an ELISA microplate reader (SPECTRAmax PLUS384; Molecular Devices, San Jose, CA, USA). The highest dilution at the cutoff absorbance 0.2 were determined as the antibody titer. […]

As to “KLLSLIKGVIVHRLEGVEGPSLGAISLAPKAQIKESLRAEL [MVF-PD-1(92-110)]”, the “anti-APi2568 antibody titers / immunogenicity (summary)” value (listed as APi2568) is “high and were relatively uniform across sample collection days and between the APi2568 dose groups”; the “anti-APi2568 antibody titers / immunogenicity (summary)” value (listed as PD-1(92)) was “high immunogenicity”.
